According to publication PMC5480602 (Slas Discovery, 2017):

Legend:
[1] = cited from earlier work
[2] = cited from earlier work; remark: listed apart in the source
α4β2 nAChR = α4β2 nAChR (Homo sapiens, UniProt P17787+P43681); experiment: cell-based
α3β4α5 nAChR = α3β4α5 nAChR (Homo sapiens, UniProt P30532+P30926+P32297); experiment: cell-based
α3β4 nAChR = α3β4 nAChR (Homo sapiens, UniProt P30926+P32297); experiment: cell-based
[3] = read-out: plasma levels (Cmax); in patients; cited from earlier work

Sequence of α4β2 nAChR (P43681 29-627 limits assumed): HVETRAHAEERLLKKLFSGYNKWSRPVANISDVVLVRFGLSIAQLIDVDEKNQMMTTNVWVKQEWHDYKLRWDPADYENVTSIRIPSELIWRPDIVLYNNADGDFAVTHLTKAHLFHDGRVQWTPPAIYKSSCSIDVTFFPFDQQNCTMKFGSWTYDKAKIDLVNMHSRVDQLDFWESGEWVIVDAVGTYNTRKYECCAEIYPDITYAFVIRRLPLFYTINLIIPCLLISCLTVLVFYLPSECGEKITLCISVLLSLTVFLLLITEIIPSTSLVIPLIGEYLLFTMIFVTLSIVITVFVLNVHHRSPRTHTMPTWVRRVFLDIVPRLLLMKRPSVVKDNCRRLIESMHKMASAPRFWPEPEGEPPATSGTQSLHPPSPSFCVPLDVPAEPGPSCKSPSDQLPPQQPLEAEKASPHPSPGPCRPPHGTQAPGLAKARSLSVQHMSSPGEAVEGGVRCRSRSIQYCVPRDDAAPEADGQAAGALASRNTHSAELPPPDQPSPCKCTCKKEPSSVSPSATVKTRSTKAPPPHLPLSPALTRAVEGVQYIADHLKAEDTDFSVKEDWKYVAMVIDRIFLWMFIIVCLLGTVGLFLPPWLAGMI
Sequence of α4β2 nAChR (P17787 26-502): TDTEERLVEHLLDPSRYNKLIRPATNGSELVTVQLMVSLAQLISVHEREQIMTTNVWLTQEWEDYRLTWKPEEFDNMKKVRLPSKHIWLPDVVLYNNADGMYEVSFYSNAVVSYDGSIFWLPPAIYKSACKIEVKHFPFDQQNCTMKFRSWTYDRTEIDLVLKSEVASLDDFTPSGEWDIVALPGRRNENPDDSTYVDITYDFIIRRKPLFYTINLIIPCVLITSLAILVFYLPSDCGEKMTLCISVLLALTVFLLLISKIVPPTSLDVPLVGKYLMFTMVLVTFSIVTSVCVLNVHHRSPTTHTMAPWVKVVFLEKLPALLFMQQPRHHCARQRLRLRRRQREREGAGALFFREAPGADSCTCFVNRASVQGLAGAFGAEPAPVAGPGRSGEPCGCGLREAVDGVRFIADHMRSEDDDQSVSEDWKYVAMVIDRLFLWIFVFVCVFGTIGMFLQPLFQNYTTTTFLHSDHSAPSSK
Sequence of α3β4α5 nAChR (P32297 32-505): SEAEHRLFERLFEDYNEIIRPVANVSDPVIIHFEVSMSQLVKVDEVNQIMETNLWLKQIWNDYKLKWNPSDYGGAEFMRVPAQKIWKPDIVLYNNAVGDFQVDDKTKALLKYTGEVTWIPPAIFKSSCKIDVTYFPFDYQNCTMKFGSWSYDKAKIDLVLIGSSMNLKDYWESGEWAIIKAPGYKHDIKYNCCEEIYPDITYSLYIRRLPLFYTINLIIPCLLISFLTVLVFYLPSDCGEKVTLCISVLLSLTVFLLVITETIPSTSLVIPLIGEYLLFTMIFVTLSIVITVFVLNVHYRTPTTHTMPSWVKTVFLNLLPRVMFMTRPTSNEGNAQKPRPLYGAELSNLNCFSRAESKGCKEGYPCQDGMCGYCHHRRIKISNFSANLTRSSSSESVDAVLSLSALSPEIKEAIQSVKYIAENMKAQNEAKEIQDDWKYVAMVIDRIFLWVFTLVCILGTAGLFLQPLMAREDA
Sequence of α3β4α5 nAChR (P30926 22-498): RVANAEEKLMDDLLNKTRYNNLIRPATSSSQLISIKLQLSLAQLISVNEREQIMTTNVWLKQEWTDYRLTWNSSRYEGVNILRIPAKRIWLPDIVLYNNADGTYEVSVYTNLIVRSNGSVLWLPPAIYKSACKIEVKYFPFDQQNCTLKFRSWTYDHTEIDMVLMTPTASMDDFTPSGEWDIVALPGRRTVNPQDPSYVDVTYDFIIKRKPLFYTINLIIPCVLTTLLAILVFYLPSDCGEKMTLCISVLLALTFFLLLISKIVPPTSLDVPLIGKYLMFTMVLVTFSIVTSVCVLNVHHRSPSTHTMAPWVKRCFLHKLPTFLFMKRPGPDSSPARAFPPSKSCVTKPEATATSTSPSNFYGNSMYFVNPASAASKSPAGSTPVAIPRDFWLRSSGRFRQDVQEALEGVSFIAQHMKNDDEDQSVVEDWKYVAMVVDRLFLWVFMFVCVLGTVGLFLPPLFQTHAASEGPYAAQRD
Sequence of α3β4α5 nAChR (P30532 23-468): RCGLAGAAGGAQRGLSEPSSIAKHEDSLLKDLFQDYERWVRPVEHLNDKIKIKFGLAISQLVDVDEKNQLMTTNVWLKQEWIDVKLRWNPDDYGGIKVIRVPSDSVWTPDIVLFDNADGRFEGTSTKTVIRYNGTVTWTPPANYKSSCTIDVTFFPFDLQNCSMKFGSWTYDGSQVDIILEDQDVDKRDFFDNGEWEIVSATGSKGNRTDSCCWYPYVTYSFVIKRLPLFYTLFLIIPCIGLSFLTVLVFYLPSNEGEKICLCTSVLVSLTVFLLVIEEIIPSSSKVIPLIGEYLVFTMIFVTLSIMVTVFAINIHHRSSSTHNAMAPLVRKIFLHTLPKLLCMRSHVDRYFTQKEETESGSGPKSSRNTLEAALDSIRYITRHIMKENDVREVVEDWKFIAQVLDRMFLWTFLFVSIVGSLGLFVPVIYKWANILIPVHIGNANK
Sequence of α3β4 nAChR (P32297 32-505): as the sequence (P32297 32-505) above
Sequence of α3β4 nAChR (P30926 22-498): as the sequence (P30926 22-498) above

SMILES	plasma concentrations [1]	efficiency in crossing the blood-brain barrier [2]	IC50 (α4β2 nAChR) [nM]	IC50 (α3β4α5 nAChR) [nM]	IC50 (α3β4 nAChR) [nM]	Cmax [3] [nM]	efficiency of crossing the blood-brain barrier [2]
N=C(N)c1ccc(OCCCCCOc2ccc(C(=N)N)cc2)cc1 [pentamidine]	~ 1.8 µM	~ 0.04%	–	–	–	–	–
NC1=NCC2c3ccccc3Cc3ccccc3N12 (stereo not shown) [epinastine]	–	–	≥ 1000	≥ 1000	≥ 1000	~100	~ 10%
